Key:
U373 glioblastoma cells = test: Adhesion assay to ECM proteins, U373; assay type: cell-based, human; details: laminin, fibronectin or type IV collagen; 16 hours (FIG. 7)
Protocol: (§1) A human brain tumor cell line derived from an adult patient with glioblastoma, U-373 MG (Cat. #HTB-17) and MDA-MB-231 breast cancer cells (Cat. #HTB-26) were obtained from American Type Culture Collection (ATCC, Manassas, Va.) and maintained in liquid culture using DMEM supplemented with 10% fetal bovine serum and antibiotics. Fibroblast conditioned medium was used as a source of chemoattractant in vitro invasion assays. Conditioned medium was prepared as described previously (Albini, et al., 1987, Cancer Res., 47:3239-3245). […]
(§2) In adhesion assays, cells were centrifuged, washed twice with serum-free DMEM, counted and resuspended in serum-free DMEM to a final concentration of 2.5×10^5 cells/ml. […] The adherent fraction was quantitated using MTT (3-[4,5-dimethylthiazol-2-yl]-2,5-diphenyltetrazolium bromide) assays. […] The absorbance of each well was measured in a microplate reader (Labsystems) at […] and a reference wavelength of 690 nm. […] The adherent fraction of cells treated with HI-131 was compared to the DMSO-treated control cells and the percent adhesion relative to the control was determined.
(§3) Each treatment condition was evaluated in duplicate in 3 independent experiments. The IC50 values were calculated by non-linear regression analysis.

[1] = system: MDA-MB-231 breast cancer cells; test: Adhesion assay to ECM proteins, MDA-MB-231; assay type: cell-based, human; details: laminin, fibronectin or type IV collagen; 16 hours (FIG. 6)
Protocol: as §1, §2, §3

CCCCCCCCCCCCSC[C@H](NC(C)=O)C(=O)CCl [HI-131, N-Ac-S-dodecyl-Cys chloromethyl ketone]
loss of adhesion, U373 (U373 glioblastoma cells): dose-dependent loss of adhesion | loss of adhesion, MDA-MB-231 [1]: dose-dependent loss of adhesion

Source: patent US6251882A, “Alkyl ketones as potent anti-cancer agents” (Parker Hughes Institute, priority 1999, dated 2001)
